Assay results taken from patent US8574563B2 (Bristol-Myers Squibb Company, priority 2006, dated 2013).

These compounds were tested on HCV 1b-377-neo replicon cells (assay: HCV replicon assay, HCV 1b-377-neo replicon cells (1b FRET)). Conditions: HCV 1b-377-neo replicon cells; HCV 1b genotype; read-out: EC50 range against HCV 1b (Table 2, Range).
Type: cell-based, Hepatitis C virus genotype 1b
In short: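 Compounds tested in HCV genotype 1b-377-neo replicon cells with a FRET read-out. Cells resistant to a reference NS5A inhibitor through a Y2065H NS5A mutation were run alongside wild-type cells.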

Compared with `COC(=O)N[C@@H](CC(N)=O)C(=O)N1CCC[C@H]1c1ncc(-c2ccc(-c3ccc(-c4cnc([C@@H]5CCCN5C(=O)[C@@H](NC(=O)OC)C(C)C)[nH]4)cc3)cc2)[nH]1` [Example M91y, methyl ((1S)-3-amino-1-(((2S)-2-(5-(4′-(2-((2S)-1-((2S)-2-((methoxycarbonyl)amino)-3-methylbutanoyl)-2-pyrrolidinyl)-1H-imidazol-5-yl)-4-biphenylyl)-1H-imidazol-2-yl)-1-pyrrolidinyl)carbonyl)-3-oxopropyl)carbamate (non-preferred name)], `COC(=O)N[C@@H](C(=O)N1CCC[C@H]1c1ncc(-c2ccc(-c3ccc(-c4cnc([C@@H]5CCCN5C(=O)C(c5ccc(Cl)cc5)N(C)C)[nH]4)cc3)cc2)[nH]1)c1ccccc1` (stereo partly drawn) [Example 84-58, methyl ((1R)-2-((2S)-2-(5-(4′-(2-((2S)-1-((4-chlorophenyl)(dimethylamino)acetyl)-2-pyrrolidinyl)-1H-imdiazol-5-yl)-4-biphenylyl)-1H-imidazol-2-yl)-1-pyrrolidinyl)-2-oxo-1-phenylethyl)carbamate] is lower in EC50: 100000 to 999000 pM for the first, 1 to 999 pM for the second.

Same assay, conditions: Hepatitis C virus, HCV 1b-377-neo replicon cells; HCV 1b genotype; read-out: EC50 range against HCV 1b (Table 2, Range)

`O=C(N[C@@H](C(=O)N1CCC[C@H]1c1ncc(-c2ccc(-c3ccc(-c4cnc([C@@H]5CCCN5C(=O)[C@@H]5CCCO5)[nH]4)cc3)cc2)[nH]1)c1ccccc1)N1CCOCC1` [Example 111, N-((1R)-2-oxo-1-phenyl-2-((2S)-2-(5-(4′-(2-((2S)-1-((2S)-tetrahydro-2-furanylcarbonyl)-2-pyrrolidinyl)-1H-imidazol-5-yl)-4-biphenylyl)-1H-imidazol-2-yl)-1-pyrrolidinyl)ethyl)-4-morpholinecarboxamide] and `COC(=O)N[C@@H](C(=O)N1CCC[C@H]1c1ncc(-c2ccc(-c3ccc(-c4cnc([C@@H]5CCCN5C(=O)CN5CCOCC5)[nH]4)cc3)cc2)[nH]1)c1ccccc1` [Example 39, methyl ((1R)-2-((2S)-2-(5-(4′-(2-((2S)-1-(4-morpholinylacetyl)-2-pyrrolidinyl)-1H-imidazol-5-yl)-4-biphenylyl)-1H-imidazol-2-yl)-1-pyrrolidinyl)-2-oxo-1-phenylethyl)carbamate] fall in the same range of EC50: 1 to 999 pM for the first, 1 to 999 pM for the second.

`COC(=O)N[C@H](C(=O)N1CCC[C@H]1c1nc(-c2cnc(-c3ccc(-c4cnc([C@@H]5CCCN5C(=O)[C@@H](NC(=O)OC)[C@@H](C)OC)[nH]4)c(F)c3)nc2)c[nH]1)[C@@H](C)OC` [Example D70, methyl ((1S,2R)-1-(((2S)-2-(5-(2-fluoro-4-(5-(2-((2S)-1-(N-(methoxycarbonyl)-O-methyl-L-threonyl)-2-pyrrolidinyl)-1H-imidazol-5-yl)-2-pyrimidinyl)phenyl)-1H-imidazol-2-yl)-1-pyrrolidinyl)carbonyl)-2-methoxypropyl) carbamate] and `COC(=O)N[C@@H](C)C(=O)N1CCC[C@H]1c1ncc(-c2ccc(-c3ccc(-c4cnc([C@@H]5CCCN5C(=O)[C@@H](NC(=O)OC)C(C)C)[nH]4)cc3)cc2F)[nH]1` [Example D41, methyl ((1S)-1-(((2S)-2-(5-(3′-fluoro-4′-(2-((2S)-1-(N-(methoxycarbonyl)-L-alanyl)-2-pyrrolidinyl)-1H-imidazol-5-yl)-4-biphenylyl)-1H-imidazol-2-yl)-1-pyrrolidinyl)carbonyl)-2-methylpropyl) carbamate] fall in the same range of EC50: 1 to 999 pM for the first, 1 to 999 pM for the second.

`COC(=O)N[C@@H](C(=O)N1CCC[C@H]1c1ncc(-c2ccc(-c3ccc(-c4cnc([C@@H]5CCCN5C(=O)[C@H](NC(=O)OC)c5ccccc5)[nH]4)nc3)cc2)[nH]1)c1ccccc1` [Example 147, methyl ((1R)-2-((2S)-2-(5-(5-(4-(2-((2S)-1-((2R)-2-((methoxycarbonyl)amino)-2-phenylacetyl)-2-pyrrolidinyl)-1H-imidazol-5-yl)phenyl)-2-pyridinyl)-1H-imidazol-2-yl)-1-pyrrolidinyl)-2-oxo-1-phenylethyl)carbamate] and `COC(=O)N[C@@H](C(=O)N[C@@H](C)c1ncc(-c2ccc(-c3ccc(-c4cnc([C@@H]5CCCN5C(=O)[C@H](NC(=O)OC)c5ccccc5)[nH]4)cn3)cc2)[nH]1)c1ccccc1` [Example 152j-12, methyl ((1R)-2-((2S)-2-(5-(6-(4-(2-((1S)-1-(((2R)-2-((methoxycarbonyl)amino)-2-phenylacetyl)amino)ethyl)-1H-imidazol-5-yl)phenyl)-3-pyridinyl)-1H-imidazol-2-yl)-1-pyrrolidinyl)-2-oxo-1-phenylethyl)carbamate] fall in the same range of EC50: 1 to 999 pM for the first, 1 to 999 pM for the second.

`COC(=O)N[C@H](C(=O)N1CCC[C@H]1c1ncc(-c2ccc(-c3ccc(-c4cnc([C@@H]5CCCN5C(=O)[C@@H](NC(=O)OC)C(C)(C)C)[nH]4)cc3)cc2)[nH]1)C(C)C` [Example M72, methyl ((1S)-1-(((2S)-2-(5-(4′-(2-((2S)-1-((2S)-2-((methoxycarbonyl)amino)-3,3-dimethylbutanoyl)-2-pyrrolidinyl)-1H-imidazol-5-yl)-4-biphenylyl)-1H-imidazol-2-yl)-1-pyrrolidinyl)carbonyl)-2-methylpropyl)carbamate] and `COC(=O)C[C@H](NC(=O)OC)C(=O)N1CCC[C@H]1c1ncc(-c2ccc(-c3ccc(-c4cnc([C@@H]5CCCN5C(=O)[C@@H](NC(=O)OC)C(C)C)[nH]4)cc3)cc2)[nH]1` [Example M110, methyl (3S)-3-((methoxycarbonyl)amino)-4-((2S)-2-(5-(4′-(2-((2S)-1-(N-(methoxycarbonyl)-L-valyl)-2-pyrrolidinyl)-1H-imidazol-5-yl)-4-biphenylyl)-1H-imidazol-2-yl)-1-pyrrolidinyl)-4-oxobutanoate] fall in the same range of EC50: 1000 to 99000 pM for the first, 1000 to 99000 pM for the second.

Compared with `CN(C)[C@@H](C(=O)N1CCC[C@H]1c1ncc(-c2ccc(-c3ccc(-c4cnc([C@@H]5CCCN5C(=O)[C@@H](c5ccccc5)N5CCCCC5)[nH]4)cc3)cc2)[nH]1)c1ccccc1Cl` [Example 28-4, (1R)-1-(2-chlorophenyl)-N,N-dimethyl-2-oxo-2-((2S)-2-(5-(4′-(2-((2S)-1-((2R)-2-phenyl-2-(1-piperidinyl)acetyl)-2-pyrrolidinyl)-1H-imidazol-5-yl)-4-biphenylyl)-1H-imidazol-2-yl)-1-pyrrolidinyl)ethanamine], `O=C([C@H]1CCCO1)N1CCC[C@H]1c1ncc(-c2ccc(-c3ccc(-c4cnc([C@@H]5CCCN5C(=O)[C@H]5CCCO5)[nH]4)cc3)cc2)[nH]1` [Example 13, 5,5′-(4,4′-biphenyldiyl)bis(2-((2S)-1-((2R)-tetrahydro-2-furanylcarbonyl)-2-pyrrolidinyl)-1H-imidazole)] is higher in EC50: 1 to 999 pM for the first, 1000 to 99000 pM for the second.

`CC[C@H](NC(=O)OC)C(=O)N1[C@@H](C)CC[C@H]1c1nc(-c2ccc(-c3ccc(-c4c[nH]c([C@@H]5CC[C@H](C)N5C(=O)[C@H](CC)NC(=O)OC)n4)cc3)cc2)c[nH]1` [Example M154, dimethyl (4,4′-biphenyldiylbis(1H-imidazole-4,2-diyl((2S,5S)-5-methyl-2,1-pyrrolidinediyl)((2S)-1-oxo-1,2-butanediyl)))biscarbamate] and `COC(=O)N[C@H](C(=O)N1CCC[C@H]1c1nc(-c2ccc(-c3ccc(-c4c[nH]c([C@@H]5CCCN5C(=O)[C@@H](NC(=O)O[C@H]5CCOC5)C(C)C)n4)cc3)cc2)c[nH]1)C(C)C` [Example F54, (3S)-tetrahydro-3-furanyl ((1S)-1-(((2S)-2-(4-(4′-(2-((2S)-1-(N-(methoxycarbonyl)-L-valyl)-2-pyrrolidinyl)-1H-imidazol-4-yl)-4-biphenylyl)-1H-imidazol-2-yl)-1-pyrrolidinyl)carbonyl)-2-methylpropyl)carbamate] fall in the same range of EC50: 1 to 999 pM for the first, 1 to 999 pM for the second.
